Measured values from ChEMBL document CHEMBL4330079, “Cyclin G-associated kinase (GAK) affinity and antiviral activity studies of a series of 3-C-substituted isothiazolo[4,3-b]pyridines” (Eur J Med Chem, 2019).

Tests used:
[1] = target: T1, Cyclin-G-associated kinase (Homo sapiens, UniProt O14976); assay: Binding affinity to wild type DNA-tagged human GAK (G13 to Y338 residues) expressed in bacterial expression system by quantitative PCR based KINOMEscan assay
T1 sequence (O14976 whole entry): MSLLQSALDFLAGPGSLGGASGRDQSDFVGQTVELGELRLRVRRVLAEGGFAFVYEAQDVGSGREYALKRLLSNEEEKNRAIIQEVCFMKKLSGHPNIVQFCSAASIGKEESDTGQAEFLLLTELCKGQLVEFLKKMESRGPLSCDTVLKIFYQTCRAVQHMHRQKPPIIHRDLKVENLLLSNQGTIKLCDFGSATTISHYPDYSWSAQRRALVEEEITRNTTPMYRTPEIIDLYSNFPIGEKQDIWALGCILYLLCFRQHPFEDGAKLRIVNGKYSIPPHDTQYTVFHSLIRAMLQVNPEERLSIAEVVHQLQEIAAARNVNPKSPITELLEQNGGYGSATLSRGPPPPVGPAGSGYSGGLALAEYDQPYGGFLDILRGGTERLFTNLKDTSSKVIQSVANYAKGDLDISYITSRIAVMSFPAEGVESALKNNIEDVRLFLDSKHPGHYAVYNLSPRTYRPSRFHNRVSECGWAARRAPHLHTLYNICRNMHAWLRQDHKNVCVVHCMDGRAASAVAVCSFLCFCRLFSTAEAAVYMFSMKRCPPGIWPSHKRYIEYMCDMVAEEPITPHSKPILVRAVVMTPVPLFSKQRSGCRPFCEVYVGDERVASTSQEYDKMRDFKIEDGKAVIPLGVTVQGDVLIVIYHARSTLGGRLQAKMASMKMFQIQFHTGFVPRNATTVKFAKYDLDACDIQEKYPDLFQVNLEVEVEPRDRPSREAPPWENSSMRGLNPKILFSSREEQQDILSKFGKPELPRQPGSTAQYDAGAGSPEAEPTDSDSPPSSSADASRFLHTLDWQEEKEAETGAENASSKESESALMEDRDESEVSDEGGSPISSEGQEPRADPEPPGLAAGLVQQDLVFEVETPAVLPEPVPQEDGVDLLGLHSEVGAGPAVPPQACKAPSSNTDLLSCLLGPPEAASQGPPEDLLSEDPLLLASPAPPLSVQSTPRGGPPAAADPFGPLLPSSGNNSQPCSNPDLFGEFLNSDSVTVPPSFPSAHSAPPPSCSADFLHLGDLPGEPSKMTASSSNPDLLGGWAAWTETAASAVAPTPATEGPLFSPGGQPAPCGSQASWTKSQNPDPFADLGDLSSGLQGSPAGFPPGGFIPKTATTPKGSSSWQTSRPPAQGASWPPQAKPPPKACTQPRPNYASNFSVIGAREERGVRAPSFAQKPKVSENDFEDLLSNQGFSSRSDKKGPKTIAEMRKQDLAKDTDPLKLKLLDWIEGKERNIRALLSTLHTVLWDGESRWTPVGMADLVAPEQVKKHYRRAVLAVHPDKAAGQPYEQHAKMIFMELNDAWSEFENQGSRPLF

[2] = test system: dengue virus type 2; assay: Antiviral activity against DENV2 New Guinea C infected in human HuH7 cells after 48 hrs by luciferase reporter gene assay; format: functional, organism-based; details: Thailand/NGS-C/1944, Huh-7, 48 h
[3] = test system: Huh-7; assay: Cytotoxicity against human HuH7 cells assessed as reduction in cell viability at 0.01 to 10 uM after 48 hrs by Cell-Titer Glo assay; format: cell-based; details: huh-7, 48 h

Kd [1] [nM] | EC50 [2] [nM] | SMILES | Activity [3]
> 30000 | – | COc1ccc(-c2cnc3c(-c4ccc(C#N)cc4)snc3c2)cc1OC | –
> 30000 | – | COC(=O)c1ccc(-c2snc3cc(-c4ccc(OC)c(OC)c4)cnc23)cc1 | –
> 30000 | – | COc1ccc(-c2cnc3c(C#Cc4ccccc4)snc3c2)cc1OC | –
– | 3350 | COc1ccc(-c2cnc3c(-c4ccc(OC)c(OC)c4)snc3c2)cc1OC | Non-Toxic
520 | – | COc1ccc(-c2cnc3c(-c4ccncc4)snc3c2)cc1OC | –
860 | – | COc1ccc(-c2cnc3c(-c4ccsc4)snc3c2)cc1OC | –

SMILES | Kd [1] [nM] | EC50 [2] [nM] | Activity [3]
COc1ccc(-c2cnc3c(-c4ccccc4)snc3c2)cc1OC | 770 | – | –
